# US8617614B2, “Sustained release preparation for tissue regeneration therapy” (Ono Pharmaceutical Co., Ltd., priority 2006, dated 2013)
# Columns and labels:
# [1] = system: STZ induced diabetes model; test: Time course of blood sugar level, STZ induced diabetes model; type: in vivo; details: STZ rat, Test Group 3: 3 mg/kg oral twice daily
# Method: Female Sprague-Dawley rats (8- to 11-week-old; Japan SLC, Inc.) were intraperitoneally administered 40 mg/kg of a citrate buffer (pH, approx. 4.5) of streptozotocin (STZ; Sigma). A normal control group was intraperitoneally given only the citrate buffer. Two weeks after STZ administration, the blood sugar, nerve conduction velocity and body weight were measured, the animals were divided into groups uniform for these properties, and administration of the test substance was begun. To determine the change over time in blood sugar, the blood sugar level was measured 4, 8 and 12 weeks following the start of test solution administration (on the day prior to nerve conduction velocity measurement). The blood sugar level of blood drawn from the caudal vein was measured using a blood sugar analyzer (Antisense II; Bayer-Sankyo). Following measurement of the blood sugar 12 weeks later, the animals were deprived of food for at least 16 hours and the fasting blood sugar and insulin were measured. In addition, a 2 g glucose tolerance test was carried out in which blood was similarly drawn 30, 60 and 120 minutes after sugar loading, and the blood sugar and insulin values were measured. In Groups 2 to 5, the feeding blood sugar level two weeks after STZ administration was measured. Of rats with blood sugar levels above 300 mg/dL, severely diabetic rats were excluded therefrom, and the remaining rats were used as diabetes model animals. Groups were formed in such a way as to make the respective groups uniform with respect to nerve conduction velocity, blood sugar level and body weight. Administration was carried out in accordance with the intended route of administration for clinical use. In Test Group 3, forced administration was carried out orally using a disposable syringe barrel and a rat stomach probe. In Test Group 4, intramuscular administration was carried out uniformly at four places within the muscle along the sciatic nerve in the femoral portion of the left leg. For subcutaneous administration in test Group 5, the animals were ether anesthetized, and subcutaneous administration was carried out in the dorsal region using a disposable syringe barrel and a disposable 25 G syringe needle. The volume of solution administered was computed based on the latest body weight. The amount of microspheres administered indicates the amount of the present drug included.
# [2] = system: hippocampal CA1 region nerve cells; test: Number of nerve cells in hippocampal CA1 region, rat 4-VO model (Nissl staining); type: in vivo
# [3] = system: STZ induced diabetes model; test: Nerve conduction velocity, STZ induced diabetes model; type: in vivo; details: STZ rat, Test Group 3: 3 mg/kg oral twice daily
# Method: Female Sprague-Dawley rats (8- to 11-week-old; Japan SLC, Inc.) were intraperitoneally administered 40 mg/kg of a citrate buffer (pH, approx. 4.5) of streptozotocin (STZ; Sigma). A normal control group was intraperitoneally given only the citrate buffer. Two weeks after STZ administration, and 4, 8 and 12 weeks after the start of test solution administration, the animals were anesthetized by the intraperitoneal administration of 30 to 45 mg/kg of pentobarbital. Fur was removed from the dorsolumbar region of the rat and the animal was immobilized in the prone position, following which a needle electrode for […] stimulation (NEC Medical Systems) was inserted near the sciatic nerve, a needle electrode for […] stimulation was inserted near the Achilles tendon on the same side, and a recording needle electrode (NEC Medical Systems) was inserted in the plantar muscle on the same side. After checking that the body temperature was in a range of 37 to 38° C., square-wave stimulation (0.5 Hz, 0.1 msec, submax voltage) to the distal and proximal stimulating electrodes was applied using an electrical stimulator (SEN-3301; Nihon Kohden Corporation). The evoked potential was led out via a measuring electrode, input through a bioelectric amplifier (AB-621G, Nihon Kohden Corporation) to an evoked electromyogram averaging program (MTS50061C, Medical Try System) and averaged ten times, and the nerve conduction velocity was computed from the respective distal and proximal conduction times and the electrode interval distances. Measurement was carried out on the left leg (treated side) and right leg (untreated side) in each test group, and the respective average values thereof used as the data. In Groups 2 to 5, the feeding blood sugar level two weeks after STZ administration was measured. Of rats with blood sugar levels above 300 mg/dL, severely diabetic rats were excluded therefrom, and the remaining rats were used as diabetes model animals. Groups were formed in such a way as to make the respective groups uniform with respect to nerve conduction velocity, blood sugar level and body weight. Administration was carried out in accordance with the intended route of administration for clinical use. In Test Group 3, forced administration was carried out orally using a disposable syringe barrel and a rat stomach probe. In Test Group 4, intramuscular administration was carried out uniformly at four places within the muscle along the sciatic nerve in the femoral portion of the left leg. For subcutaneous administration in test Group 5, the animals were ether anesthetized, and subcutaneous administration was carried out in the dorsal region using a disposable syringe barrel and a disposable 25 G syringe needle. The volume of solution administered was computed based on the latest body weight. The amount of microspheres administered indicates the amount of the present drug included.
# SDF-1 = SDF-1 production promoting effect, angiogenesis kit culture, ELISA; type: cell-based, human; details: 100 nmol/L
# Method: An angiogenesis kit (Kurabo Industries Ltd.) composed of normal human umbilical vein endothelial cells and normal human skin fibroblasts was procured and used.
# Using a carbon dioxide incubator (BNA-121D) and using Angiogenesis Culture 2 provided with the angiogenesis kit as the liquid culture, culturing was carried out in a wet environment at 37° C. with 5% carbon dioxide/95% air.
# Immediately after the kit arrived, the cells were cultured for 3 hours, following which the liquid culture was replaced and culturing was continued. Three days after the start of culturing, the liquid culture was again replaced. Six days after the start of culturing, treatment with the present drug was carried out by replacing the liquid culture. The treatment concentration was set to 100 nmol/L in each case. DMSO treatment was carried out as a negative control. Six, 24, 48 and 72 hours after treatment with the present drug, the culture supernatant was collected and furnished for measurement of the growth factors. The measured growth factors were EGF and SDF-1.
# The culture supernatant was measured with the following ELISA kits.
# Human SDF-1α Immunoassay (R&D Systems Inc., DSA00)
# [4] = right leg (drug-untreated side)
structure (smiles),measurement,setting,value
"O=C(O)COc1cccc2c1CCC=C2CCO/N=C(\c1ccccc1)c1cccnc1 [present drug, ({5-[2-({[(1E)-phenyl(pyridin-3-yl)methylene]amino}oxy)ethyl]-7,8-dihydronaphthalen-1-yl}oxy)acetic acid]",Blood sugar (mg/dL) 0 weeks,[1],567 ± 73 mg/dL
same,Blood sugar (mg/dL) 4 weeks,[1],555 ± 39 mg/dL
same,Blood sugar (mg/dL) 8 weeks,[1],600 ± 64 mg/dL
same,Blood sugar (mg/dL) 12 weeks,[1],510 ± 84 mg/dL
same,blood sugar relative to Test Group 2,[1]; at any of the times,A significant decline in blood sugar was not observed
same,number of hippocampal CA1 pyramidal nerve cells relative to the group given the medium (Test Group 3),"[2]; rat 4-VO Test 1, day 42, s.c. twice daily, present drug 10, ornoprostil 0.1, PGE1•αCD 1.5 and 3 mg/kg",significant increase
same,decrease in the number of hippocampal CA1 region nerve cells relative to Test Group 1,"[2]; rat 4-VO Test 2, Test Group 2: 10 mg/kg oral twice daily, day 8",significant suppression
same,number of hippocampal CA1 region nerve cells,"[2]; rat 4-VO Test 2, Test Group 7: medium up to day 8, 10 mg/kg oral for 34 days from day 9",increasing trend
same,number of hippocampal CA1 region nerve cells relative to Test Group 4,"[2]; rat 4-VO Test 2, oral 1 mg/kg (Test Group 3)",significant increases
same,number of hippocampal CA1 region nerve cells relative to Test Group 4,"[2]; rat 4-VO Test 2, oral 10 mg/kg (Test Group 6)",significant increases
same,left leg nerve conduction velocity relative to Test Group 2,[3]; after 12 weeks,significant nerve conduction velocity increases
same,right leg nerve conduction velocity relative to Test Group 2,[3]; at any of the times,A significant extension effect was not confirmed
same,Nerve conduction velocity (m/sec) 0 weeks,[3]; left leg (drug-treated side),37.5 ± 8.0 m/sec
same,Nerve conduction velocity (m/sec) 4 weeks,[3]; left leg (drug-treated side),37.8 ± 3.8 m/sec
same,Nerve conduction velocity (m/sec) 8 weeks,[3]; left leg (drug-treated side),40.8 ± 3.4 m/sec
same,Nerve conduction velocity (m/sec) 0 weeks,[3]; [4],38.7 ± 5.0 m/sec
same,Nerve conduction velocity (m/sec) 4 weeks,[3]; [4],39.0 ± 2.3 m/sec
same,Nerve conduction velocity (m/sec) 8 weeks,[3]; [4],39.9 ± 2.2 m/sec
same,Nerve conduction velocity (m/sec) 12 weeks,[3]; [4],41.3 ± 2.1 m/sec
same,SDF-1 relative to the solvent control group,SDF-1; 72 hours after treatment,significantly increased
same,"SDF-1, Drug group",SDF-1; culture supernatant 72 hours after treatment,383 ± 36.0 pg/mL
